Assay: Pharmacokinetic evaluation of liquid bevirimat dosage forms, oral gavage, male Cynomolgus monkeys
Settings: male, cynomolgus monkey, in vivo, po; for concentration at 72 hr: BLOQ=below 50 ng/mL; for AUC: AUCall
Method: Six male Cynomolgus monkeys having an initial body weight of about 3.5 to about 4.5 kg are allowed 7 days to acclimate to their individual housing units. Monkeys are supplied with water and a commercial diet ad libitum prior to the study initiation. Food is withheld from the monkeys for a minimum of twelve hours before the study and during the study until four hours postdose when food is returned. Water is supplied ad libitum.
Test formulations are administered to the monkeys at time 0 on appropriate days. Test formulations will be dosed orally via oral gavage or intravenously.
Samples are drawn at the frequencies indicated below. Each blood sample (0.5 mL) is collected from the monkey's saphenous vein via a butterfly catheter and placed into a chilled polypropylene tube containing sodium heparin as the anticoagulant. Blood samples are centrifuged at a temperature of 4° C. at a speed of 3,000 rpm for 15 minutes. All samples are maintained chilled throughout processing. Plasma is collected after centrifugation, pipetted into a 2-mL polypropylene microtube, and frozen on dry-ice pending analytical evaluation.

[1] = 50 mg FAE/monkey, Plasma concentration, 12.5 mg FAE/mL in 10% HPβCD, 50 mg FAE/monkey oral gavage, monkeys 186,116,120,AVG
[2] = 50 mg FAE/monkey, Plasma concentration, 12.5 mg FAE/mL in 15% EtOH:0.5% TPGS:15% PG:5% Glycerin, 0.2% Povidone K90, 50 mg FAE/monkey oral gavage, monkeys 117,118,119,AVG
[3] = 50 mg FAE/monkey, Plasma concentration, 25 mg/mL in 30% EtOH:1% TPGS:30% PG:10% Glycerin, 50 mg FAE/monkey oral gavage, monkeys 117,118,119,AVG
[4] = 50 mg FAE/monkey, Plasma concentration, 50 mg FAE/mL in 40% EtOH:40% PG:20% Glycerol, 50 mg FAE/monkey oral gavage, monkeys 117,118,119,AVG
[5] = 50 mg, 12.5 mg FAE/mL in 10% HPβCD, 50 mg FAE/monkey oral gavage, monkeys 186,116,120,AVG
[6] = 50 mg, 12.5 mg FAE/mL in 15% EtOH:0.5% TPGS:15% PG:5% Glycerin, 0.2% Povidone K90, 50 mg FAE/monkey oral gavage, monkeys 117,118,119,AVG
[7] = 50 mg, 12.5 mg FAE/mL in 40% PG, 20% Glycerin, 0.25% Tween80, 0.2% Povidone K15, 50 mg FAE oral gavage, monkeys 186,116,120,AVG

`C=C(C)[C@@H]1CC[C@]2(C(=O)O)CC[C@]3(C)[C@H](CC[C@@H]4[C@@]5(C)CC[C@H](OC(=O)CC(C)(C)C(=O)O)C(C)(C)[C@@H]5CC[C@]43C)[C@@H]12` [Bevirimat, 3-O-(3′,3′-dimethylsuccinyl)betulinic acid] showed a concentration at 2 hr [1] of 59200 ng/mL, a concentration at 2 hr [2] of 51300 ng/mL and a concentration at 2 hr [3] of 56700 ng/mL. For the same compound, the concentration at 2 hr [4] was 25800 ng/mL, the concentration at 2 hr (50 mg FAE/monkey, Plasma concentration, 50 mg FAE/mL in 40% PG:20% Glycerin:1% TPGS:5% Tween 80 in SWFI, 50 mg FAE/monkey oral gavage, monkeys 117,118,119,AVG) was 17900 ng/mL and the concentration at 4 hr [1] was 35000 ng/mL. The concentration at 4 hr [2] was 33100 ng/mL, the concentration at 6 hr [1] was 20700 ng/mL and the concentration at 6 hr [2] was 23100 ng/mL. The concentration at 8 hr (50 mg FAE/monkey, Plasma concentration, 8.0 hr, 12.5 mg FAE/mL in 10% HPβCD, 50 mg FAE/monkey oral gavage, monkeys 186,116,120,AVG) was 13000 ng/mL, the concentration at 24 hr (50 mg FAE/monkey, Plasma concentration, 24 hr, 12.5 mg FAE/mL in 10% HPβCD, 50 mg FAE/monkey oral gavage, monkeys 186,116,120,AVG) was 1560 ng/mL and the concentration at 72 hr [1] was 120 ng/mL. The concentration at 72 hr (50 mg FAE/monkey, Plasma concentration, 12.5 mg FAE/mL in 15% EtOH:0.5% TPGS:15% PG:5% Glycerin, 50 mg FAE/monkey oral gavage, monkeys 117,118,119,AVG) was 233 ng/mL, the concentration at 72 hr [3] was 69.3 ng/mL and the concentration at 72 hr [4] was 76 ng/mL. For the same compound, the AUC [5] was 348 µg·h/mL, the AUC [6] was 488 µg·h/mL and the AUC [7] was 212 µg·h/mL. It also gave a Cmax [5] of 59200 ng/mL, a Cmax [6] of 51300 ng/mL and a Cmax (50 mg, 12.5 mg FAE/mL in 15% Ethanol, 30% PG, 10% Glycerin, 50 mg FAE oral gavage, monkeys 117,118,119,AVG) of 64100 ng/mL. It also gave a Cmax [7] of 42800 ng/mL, a Cmax (50 mg, 12.5 mg FAE/mL in 40% PG, 20% Glycerin, 1% TPGS, 0.25% Tween80, 0.2% Povidone K15, 50 mg FAE/monkey oral gavage, monkeys 117,118,119,AVG) of 93300 ng/mL and a Cmax (50 mg, 50 mg FAE/mL in 40% EtOH:40% PG:20% Glycerol, 50 mg FAE/monkey oral gavage, monkeys 117,118,119,AVG) of 25800 ng/mL. It also gave a Cmax (50 mg, 50 mg/monkey, PG/glycerin/Vitamin ETPGS/Tween80/Plasdone C15 formulation, AVG) of 62400 ng/mL, a Cmax (50 mg, 50 mg/monkey, PG/glycerin/Vitamin ETPGS/Tween80/Plasdone C15 formulation, individual monkey) of 55100 ng/mL and a Cmax (50 mg, 50 mg/monkey, PG/glycerin/Vitamin ETPGS/ethanol formulation, AVG) of 60100 ng/mL. The Cmax (50 mg, 50 mg/monkey, PG/glycerin/Vitamin ETPGS/ethanol formulation, individual monkey) was 58900 ng/mL, the half-life (50 mg, t1/2, 12.5 mg FAE/mL in 10% HPβCD, 50 mg FAE/monkey oral gavage, monkeys 186,116,120,AVG) was 9.9 h and the half-life (50 mg, t1/2, 12.5 mg FAE/mL in 15% EtOH:0.5% TPGS:15% PG:5% Glycerin, 50 mg FAE/monkey oral gavage, monkeys 117,118,119,AVG) was 12 h. For the same compound, the half-life (50 mg, t1/2, 12.5 mg FAE/mL in 15% EtOH:0.5% TPGS:15% PG:5% Glycerin, 0.2% Povidone K90, 50 mg FAE/monkey oral gavage, monkeys 117,118,119,AVG) was 12.2 h, the half-life (50 mg, t1/2, 12.5 mg FAE/mL in 15% Ethanol, 30% PG, 10% Glycerin, 50 mg FAE oral gavage, monkeys 117,118,119,AVG) was 8.9 h and the half-life (50 mg, t1/2, 12.5 mg FAE/mL in 40% PG, 20% Glycerin, 0.25% Tween80, 0.2% Povidone K15, 50 mg FAE oral gavage, monkeys 186,116,120,AVG) was 8 h. For the same compound, the half-life (50 mg, t1/2, 12.5 mg FAE/mL in 40% PG, 20% Glycerin, 1% TPGS, 0.25% Tween80, 50 mg FAE/monkey oral gavage, monkeys 186,116,120,AVG) was 9.9 h, the half-life (50 mg, t1/2, 12.5 mg FAE/mL in 40% PG, 20% Glycerin, 1% TPGS, 0.25% Tween80, 0.2% Povidone K15, 50 mg FAE/monkey oral gavage, monkeys 117,118,119,AVG) was 10.4 h and the half-life (50 mg, t1/2, 25 mg/mL in 30% EtOH:1% TPGS:30% PG:10% Glycerin, 50 mg FAE/monkey oral gavage, monkeys 117,118,119,AVG) was 10.6 h. The half-life (50 mg, t1/2, 50 mg FAE/mL in 40% EtOH:40% PG:20% Glycerol, 50 mg FAE/monkey oral gavage, monkeys 117,118,119,AVG) was 9.8 h, the half-life (50 mg, t1/2, 50 mg FAE/mL in 40% PG:20% Glycerin:1% TPGS:5% Tween 80 in SWFI, 50 mg FAE/monkey oral gavage, monkeys 117,118,119,AVG) was 11.8 h and the half-life (50 mg, t1/2, 10% HPβCD, 50 mg FAE/monkey oral gavage, monkeys 117,118,119,AVG) was 10 h. For the same compound, the half-life (50 mg, t1/2, oral, 50 mg/monkey, PG/glycerin/Vitamin ETPGS/Tween80/Plasdone C15 formulation, AVG) was 6.4 h, the half-life (50 mg, t1/2, oral, 50 mg/monkey, PG/glycerin/Vitamin ETPGS/Tween80/Plasdone C15 formulation, individual monkey) was 8.6 h and the half-life (50 mg, t1/2, oral, 50 mg/monkey, PG/glycerin/Vitamin ETPGS/ethanol formulation, AVG) was 6.9 h. The half-life (50 mg, t1/2, oral, 50 mg/monkey, PG/glycerin/Vitamin ETPGS/ethanol formulation, individual monkey) was 6.2 h, the Tmax (50 mg, tmax, 12.5 mg FAE/mL in 40% PG, 20% Glycerin, 1% TPGS, 0.25% Tween80, 0.2% NaCMC, 50 mg FAE/monkey oral gavage, monkeys 117,118,119,AVG) was 1 h and the concentration at 0.25 h (50 mg/monkey, Plasma Concentration, PG/glycerin/Vitamin ETPGS/Tween80/Plasdone C15 formulation, AVG) was 64.6 ng/mL. It also gave a concentration at 0.25 h (50 mg/monkey, Plasma Concentration, PG/glycerin/Vitamin ETPGS/Tween80/Plasdone C15 formulation, individual monkey) of 69.8 ng/mL and a concentration at 0.5 h (50 mg/monkey, Plasma Concentration, PG/glycerin/Vitamin ETPGS/Tween80/Plasdone C15 formulation, 0.50 hr, AVG) of 3550 ng/mL.

Source: patent US20100216751A1 (priority 2007, published 2010)
